The source made the active and inactive calls.
Columns and labels:
Vero = assay: cells; type: functional; conditions: Chlorocebus sabaeus
[1] = molecular target: Beta-2 adrenergic receptor (Homo sapiens, UniProt P07550); assay: ADRB2 activation measured by internalization – cell-based, FAP fluorogen, flow cytometry, cherry pick 1, dose response (AID 588763); type: functional
Protein skinhead-1 = molecular target: T1, Protein skinhead-1 (Caenorhabditis elegans, UniProt P34707); type: functional
T1 sequence (P34707 whole entry): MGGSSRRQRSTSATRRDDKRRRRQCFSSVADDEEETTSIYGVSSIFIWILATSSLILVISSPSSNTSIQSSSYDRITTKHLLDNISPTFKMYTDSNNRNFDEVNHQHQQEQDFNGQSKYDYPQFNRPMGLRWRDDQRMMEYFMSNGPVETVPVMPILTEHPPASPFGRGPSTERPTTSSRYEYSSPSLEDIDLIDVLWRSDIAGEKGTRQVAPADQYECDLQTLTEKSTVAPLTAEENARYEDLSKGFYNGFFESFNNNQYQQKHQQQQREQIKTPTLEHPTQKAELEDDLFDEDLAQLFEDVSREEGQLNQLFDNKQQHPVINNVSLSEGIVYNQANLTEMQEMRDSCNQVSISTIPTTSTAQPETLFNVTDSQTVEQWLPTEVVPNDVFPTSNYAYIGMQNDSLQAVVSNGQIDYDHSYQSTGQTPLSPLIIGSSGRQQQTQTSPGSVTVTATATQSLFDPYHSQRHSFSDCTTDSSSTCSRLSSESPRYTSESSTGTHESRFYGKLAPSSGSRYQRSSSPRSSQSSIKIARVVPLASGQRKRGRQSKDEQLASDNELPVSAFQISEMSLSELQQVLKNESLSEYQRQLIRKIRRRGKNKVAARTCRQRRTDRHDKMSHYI

[2] = cytotoxicity toward MDA-MB-231 breast cancer cells – cell-based, CellTiter-Glo luminescence, cherry-pick, cytotoxicity control for RAD54 inhibitor project, dose response (AID 651692); type: functional
[3] = molecular target: T2, DNA repair and recombination protein RAD54-like (Homo sapiens, UniProt Q92698); assay: RAD54 Holliday junction migration blockers – biochemical, fluorescence, cherry-picked samples, dose series, confirmation (AID 651657); type: functional
T2 sequence (Q92698 whole entry): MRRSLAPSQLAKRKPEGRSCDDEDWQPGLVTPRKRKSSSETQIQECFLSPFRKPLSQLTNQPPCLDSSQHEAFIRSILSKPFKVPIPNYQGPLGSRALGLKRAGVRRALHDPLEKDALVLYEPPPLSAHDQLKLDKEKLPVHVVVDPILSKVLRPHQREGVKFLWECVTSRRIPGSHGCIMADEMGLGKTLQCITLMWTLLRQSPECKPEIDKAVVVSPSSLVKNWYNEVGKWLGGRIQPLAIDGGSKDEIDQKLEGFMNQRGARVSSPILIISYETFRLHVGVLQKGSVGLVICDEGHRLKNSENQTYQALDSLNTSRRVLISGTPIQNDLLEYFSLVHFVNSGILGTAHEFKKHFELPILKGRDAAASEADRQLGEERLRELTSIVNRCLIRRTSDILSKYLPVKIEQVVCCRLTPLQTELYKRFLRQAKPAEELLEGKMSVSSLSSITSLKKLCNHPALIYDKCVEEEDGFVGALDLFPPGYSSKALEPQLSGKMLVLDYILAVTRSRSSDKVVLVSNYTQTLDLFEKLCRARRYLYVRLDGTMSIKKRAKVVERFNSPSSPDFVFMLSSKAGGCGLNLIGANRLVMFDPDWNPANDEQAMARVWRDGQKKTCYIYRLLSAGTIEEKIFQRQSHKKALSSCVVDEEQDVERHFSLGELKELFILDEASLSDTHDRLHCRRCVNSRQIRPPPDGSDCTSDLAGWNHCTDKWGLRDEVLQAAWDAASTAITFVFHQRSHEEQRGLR

[4] = molecular target: T3, DNA repair protein RAD52 homolog (Homo sapiens, UniProt P43351); type: functional, biochemical
T3 sequence (P43351 whole entry): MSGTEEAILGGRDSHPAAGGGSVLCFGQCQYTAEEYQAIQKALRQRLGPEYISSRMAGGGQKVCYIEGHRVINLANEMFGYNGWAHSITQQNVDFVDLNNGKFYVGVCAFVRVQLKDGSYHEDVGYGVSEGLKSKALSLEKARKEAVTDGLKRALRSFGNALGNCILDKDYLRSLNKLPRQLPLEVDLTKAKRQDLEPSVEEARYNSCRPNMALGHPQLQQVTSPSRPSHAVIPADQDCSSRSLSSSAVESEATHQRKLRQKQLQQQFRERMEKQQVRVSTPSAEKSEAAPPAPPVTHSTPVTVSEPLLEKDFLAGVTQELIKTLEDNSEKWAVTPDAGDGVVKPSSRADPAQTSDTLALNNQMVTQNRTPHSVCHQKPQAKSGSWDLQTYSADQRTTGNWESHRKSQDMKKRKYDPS

Interleukin-8 [5] = molecular target: T4, Interleukin-8 (Homo sapiens, UniProt P10145); assay: Dose Response confirmation of uHTS small molecule hits for cystic fibrosis induced NFkb Inhibitors in a TNFa-induced IL8 counterscreen.; type: functional; conditions: read-out: IC50_Mean
T4 sequence (P10145 whole entry): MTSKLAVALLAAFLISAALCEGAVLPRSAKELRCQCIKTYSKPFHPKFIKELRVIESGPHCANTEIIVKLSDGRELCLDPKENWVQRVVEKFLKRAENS

Interleukin-8 [6] = molecular target: T4, Interleukin-8; assay: Dose Response confirmation of uHTS small molecule hits for cystic fibrosis induced NFkb Inhibitors in a PAF-induced IL8 counterscreen.; type: functional; conditions: read-out: IC50_Mean
[7] = bead-based luminescence quenchers, dual-tagged ARNT – biochemical, AlphaScreen, cherry-pick, artefact control for ARNT-TACC3 interaction inhibitor project, dose response (AID 651705); type: functional;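 also: AlphaScreen bead proximity signal that flags compounds interfering with the detection technology; potency reflects signal decrease which marks the compound as an assay artifact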
[8] = molecular target: Tyrosine-protein phosphatase non-receptor type 11 (Homo sapiens, UniProt Q06124); assay: PTPN11 enzyme inhibitors – biochemical, selectivity assay for STEP inhibitor project, dose response (AID 602367); type: functional; conditions: read-out: IC50_Mean
Tyrosine-protein phosphatase non-receptor type 11, sequence (Q06124 whole entry): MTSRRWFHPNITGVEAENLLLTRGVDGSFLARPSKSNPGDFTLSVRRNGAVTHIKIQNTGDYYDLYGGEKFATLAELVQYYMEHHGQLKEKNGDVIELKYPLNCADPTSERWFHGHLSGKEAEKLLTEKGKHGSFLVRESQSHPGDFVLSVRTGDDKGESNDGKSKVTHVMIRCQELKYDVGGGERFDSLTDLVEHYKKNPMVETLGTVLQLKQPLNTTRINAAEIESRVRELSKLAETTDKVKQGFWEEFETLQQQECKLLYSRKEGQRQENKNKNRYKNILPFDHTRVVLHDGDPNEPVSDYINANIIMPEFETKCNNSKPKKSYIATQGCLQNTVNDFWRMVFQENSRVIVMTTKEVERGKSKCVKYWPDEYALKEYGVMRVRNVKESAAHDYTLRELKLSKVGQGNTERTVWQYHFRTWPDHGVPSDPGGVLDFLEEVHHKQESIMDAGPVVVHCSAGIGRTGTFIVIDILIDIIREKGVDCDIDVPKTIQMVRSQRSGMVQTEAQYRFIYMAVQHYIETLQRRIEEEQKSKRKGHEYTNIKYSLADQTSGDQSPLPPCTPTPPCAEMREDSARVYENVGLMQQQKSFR

[9] = molecular target: Tyrosine-protein phosphatase non-receptor type 5 (Homo sapiens, UniProt P54829); assay: PTPN5 enzyme inhibition – biochemical, fluorescence intensity, uHTS hits, confirmation (AID 602372); type: functional; conditions: read-out: IC50_Mean
Tyrosine-protein phosphatase non-receptor type 5, sequence (P54829 whole entry): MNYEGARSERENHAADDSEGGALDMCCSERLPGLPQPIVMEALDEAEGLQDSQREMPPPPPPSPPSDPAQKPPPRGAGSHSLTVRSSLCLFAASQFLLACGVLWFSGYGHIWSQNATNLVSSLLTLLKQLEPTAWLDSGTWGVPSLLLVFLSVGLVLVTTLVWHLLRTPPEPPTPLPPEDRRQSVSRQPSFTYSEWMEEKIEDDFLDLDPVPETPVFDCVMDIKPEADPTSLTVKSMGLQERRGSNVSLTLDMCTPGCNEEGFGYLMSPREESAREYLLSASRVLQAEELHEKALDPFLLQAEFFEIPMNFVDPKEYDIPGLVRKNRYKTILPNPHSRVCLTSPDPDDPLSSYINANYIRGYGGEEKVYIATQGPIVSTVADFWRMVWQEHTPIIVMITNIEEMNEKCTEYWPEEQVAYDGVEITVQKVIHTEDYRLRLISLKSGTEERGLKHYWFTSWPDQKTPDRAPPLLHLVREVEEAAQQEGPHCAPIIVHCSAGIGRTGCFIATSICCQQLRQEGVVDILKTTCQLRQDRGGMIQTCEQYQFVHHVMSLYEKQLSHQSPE

[10] = molecular target: Dual specificity protein phosphatase 3 (Homo sapiens, UniProt P51452); assay: VHR phosphatase inhibition, dose response, selectivity assay for STEP inhibitor project, biochemical (AID 602374); type: functional; conditions: read-out: IC50_Mean
Dual specificity protein phosphatase 3, sequence (P51452 whole entry): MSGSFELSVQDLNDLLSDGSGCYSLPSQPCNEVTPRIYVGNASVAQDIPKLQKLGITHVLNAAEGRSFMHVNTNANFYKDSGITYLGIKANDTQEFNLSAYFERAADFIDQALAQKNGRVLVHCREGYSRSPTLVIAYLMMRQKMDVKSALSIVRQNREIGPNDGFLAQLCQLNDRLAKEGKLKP

[11] = viability of uninfected HEp-2 cells – cell-based, HTS, cytotoxicity control for RSV inhibitor project, dose response (AID 2410); type: functional; conditions: human respiratory syncytial virus
[12] = molecular target: Mitochondrial peptide methionine sulfoxide reductase (Bos taurus, UniProt P54149); type: functional;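 also: absorbance read-out, biochemical high-throughput dose-response screen for MsrA inhibitors, confirmatory; recombinant bovine MsrA coupled to E. coli TrxB with NADPH and selenocystamine; potency is for inhibitors of MsrA activity on DMSO substrate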
Mitochondrial peptide methionine sulfoxide reductase, sequence (P54149 whole entry): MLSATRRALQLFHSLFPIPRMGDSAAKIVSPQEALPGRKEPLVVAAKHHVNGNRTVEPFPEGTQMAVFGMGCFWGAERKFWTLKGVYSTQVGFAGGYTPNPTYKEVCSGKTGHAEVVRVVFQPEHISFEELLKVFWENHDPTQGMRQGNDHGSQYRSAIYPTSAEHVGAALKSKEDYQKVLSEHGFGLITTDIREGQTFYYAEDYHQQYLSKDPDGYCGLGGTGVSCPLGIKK

[13] = molecular target: Adenosylmethionine-8-amino-7-oxononanoate aminotransferase (Mycobacterium tuberculosis, UniProt P9WQ81); assay: Mycobacterium tuberculosis BioA enzyme inhibitor Measured in Biochemical System Using Plate Reader - 2163-02_Inhibitor_Dose_CherryPick_Activity.; type: functional, Mycobacterium tuberculosis UT205
Adenosylmethionine-8-amino-7-oxononanoate aminotransferase, sequence (P9WQ81 whole entry): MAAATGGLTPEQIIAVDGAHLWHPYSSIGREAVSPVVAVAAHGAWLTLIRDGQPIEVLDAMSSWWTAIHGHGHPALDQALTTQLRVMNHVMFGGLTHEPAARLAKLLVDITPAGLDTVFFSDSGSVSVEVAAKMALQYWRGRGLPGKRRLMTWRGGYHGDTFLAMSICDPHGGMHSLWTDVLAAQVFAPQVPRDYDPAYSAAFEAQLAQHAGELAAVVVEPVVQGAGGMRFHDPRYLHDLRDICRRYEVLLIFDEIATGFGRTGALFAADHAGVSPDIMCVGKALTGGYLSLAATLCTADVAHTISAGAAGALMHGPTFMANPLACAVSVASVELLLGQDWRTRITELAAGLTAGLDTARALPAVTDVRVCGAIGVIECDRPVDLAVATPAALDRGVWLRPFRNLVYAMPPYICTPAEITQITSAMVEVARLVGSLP

[14] = NIH-3T3 fibroblast cytotoxicity, dose response, cytotoxicity control, cell-based, fluorescence, Alamar Blue, secondary assay (AID 2327); type: functional;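 also: NIH-3T3 mouse fibroblasts cultured with fluconazole at 8 µg/mL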
[15] = test system: Streptococcus sp. 'group A'; assay: Streptococcus pyogenes SK(-)GAS viability under kanamycin – luminescence, BacTiterGlo, confirmation, counter-screen for streptokinase expression inhibitor project, dose response (AID 1900); type: functional, organism-based
BJ [16] = assay: BJ-TERT fibroblast viability loss – cell-based, RAS-independent, luminescence, dose response (AID 1933); type: functional; conditions: Homo sapiens
[17] = molecular target: Luciferin 4-monooxygenase (Photinus pyralis, UniProt P08659); assay: Counter Screen for Luciferase-based Assay Positives. [Related pubchem assays: 620, 618, 411 ]
Luciferin 4-monooxygenase, sequence (P08659 whole entry): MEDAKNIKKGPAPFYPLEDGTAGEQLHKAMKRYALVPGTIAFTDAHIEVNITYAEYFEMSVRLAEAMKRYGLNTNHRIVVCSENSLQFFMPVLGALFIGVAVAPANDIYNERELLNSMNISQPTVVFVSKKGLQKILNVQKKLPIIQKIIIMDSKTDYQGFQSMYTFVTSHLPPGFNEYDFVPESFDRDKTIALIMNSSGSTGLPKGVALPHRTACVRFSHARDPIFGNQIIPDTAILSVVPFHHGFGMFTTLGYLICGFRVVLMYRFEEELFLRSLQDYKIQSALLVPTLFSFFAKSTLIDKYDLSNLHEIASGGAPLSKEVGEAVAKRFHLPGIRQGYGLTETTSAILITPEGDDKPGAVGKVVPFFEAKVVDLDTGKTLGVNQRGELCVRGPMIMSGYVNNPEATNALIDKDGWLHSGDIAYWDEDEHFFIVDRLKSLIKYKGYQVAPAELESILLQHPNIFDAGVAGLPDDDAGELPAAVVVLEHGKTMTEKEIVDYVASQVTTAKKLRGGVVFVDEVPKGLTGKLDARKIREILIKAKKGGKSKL

cells [18] = type: functional, cell-based
Streptokinase A = molecular target: T5, Streptokinase A (Streptococcus pyogenes serotype M1, UniProt P10520); assay: viability-normalized secreted streptokinase activity reduction – plasminogen activation absorbance, OD405, dose response (AID 1914); type: functional, Streptococcus pyogenes M1 GAS;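 also: secreted streptokinase activity via plasminogen activation per viability signal from cell pellet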
T5 sequence (P10520 whole entry): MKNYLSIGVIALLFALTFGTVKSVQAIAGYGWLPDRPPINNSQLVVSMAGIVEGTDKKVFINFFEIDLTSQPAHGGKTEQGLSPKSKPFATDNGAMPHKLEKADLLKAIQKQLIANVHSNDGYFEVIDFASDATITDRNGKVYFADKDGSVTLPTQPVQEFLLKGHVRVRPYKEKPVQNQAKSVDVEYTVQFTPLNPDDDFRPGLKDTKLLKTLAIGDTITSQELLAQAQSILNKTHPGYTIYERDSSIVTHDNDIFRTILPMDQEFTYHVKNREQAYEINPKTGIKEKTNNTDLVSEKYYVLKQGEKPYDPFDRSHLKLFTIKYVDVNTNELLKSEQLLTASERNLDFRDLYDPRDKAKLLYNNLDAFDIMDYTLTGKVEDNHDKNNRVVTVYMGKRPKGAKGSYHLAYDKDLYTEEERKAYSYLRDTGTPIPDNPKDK

BJ [19] = assay: cells; type: functional, cell-based; conditions: Homo sapiens
[20] = fluconazole-exposed Candida albicans growth modulators – fluorescence, retest, confirmation (AID 2467); type: functional, cell-based
cells [21] = type: functional, cell-based; remark: listed apart in the source
[22] = viability of PTEN-deleted HCT116 cells – cell-based, HCT116 PTEN knockout, dose response (AID 1047); type: functional;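 also: HCT116 colon tumor cells with PTEN knocked out; cells exposed to compound for 60 hours before readout; potency for loss of cell viability measured by luminescence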
[23] = molecular target: T6, Serine/threonine-protein phosphatase (Candida dubliniensis (strain CD36 / CBS 7987 / NCPF 3949 / NRRLY-17841) (Yeast), UniProt B9W6M3); assay: blockers of CaCl2-induced CDRE-lacZ signaling – S. cerevisiae, luminescence, secondary, dose response (AID 2388); type: functional, cell-based;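 also: yeast reporter cells carrying a calcineurin-responsive lacZ construct stimulated with calcium chloride; luminescent beta-galactosidase reporter signal in whole cells rather than isolated phosphatase activity; potency for inhibition where a drop in reporter signal means calcineurin blockade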
T6 sequence (B9W6M3 whole entry): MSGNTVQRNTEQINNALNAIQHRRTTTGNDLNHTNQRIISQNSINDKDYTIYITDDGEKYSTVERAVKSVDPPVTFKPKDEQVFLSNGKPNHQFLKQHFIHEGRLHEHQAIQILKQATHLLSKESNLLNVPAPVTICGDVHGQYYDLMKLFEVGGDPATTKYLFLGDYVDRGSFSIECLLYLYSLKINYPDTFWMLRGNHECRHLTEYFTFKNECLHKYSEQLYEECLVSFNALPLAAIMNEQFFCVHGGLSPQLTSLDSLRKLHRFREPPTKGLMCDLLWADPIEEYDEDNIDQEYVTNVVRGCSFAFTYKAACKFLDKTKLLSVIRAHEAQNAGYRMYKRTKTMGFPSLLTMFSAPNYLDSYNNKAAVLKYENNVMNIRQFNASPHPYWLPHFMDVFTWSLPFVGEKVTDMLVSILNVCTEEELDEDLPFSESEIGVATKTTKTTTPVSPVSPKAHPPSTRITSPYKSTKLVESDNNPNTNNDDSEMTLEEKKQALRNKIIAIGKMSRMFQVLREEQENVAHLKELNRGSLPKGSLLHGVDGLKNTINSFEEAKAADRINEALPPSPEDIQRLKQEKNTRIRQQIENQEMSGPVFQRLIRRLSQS

HT-1080 = assay: HT1080 cell viability loss – fluorescence readout (AID 620); type: functional, cell-based; conditions: Homo sapiens
[24] = viability of HCT116 lacking mutant beta-catenin – cell-based, human colon tumor, dose response (AID 1045); type: functional;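 also: HCT116 colon tumor cells with beta catenin knocked out; cells exposed to compound for 60 hours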
BJ [25] = assay: BJ-TERT-LT-ST fibroblast viability loss – cell-based, RAS-independent, luminescence, dose response (AID 1935); type: functional; conditions: Homo sapiens;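 also: BJ fibroblasts immortalized with TERT plus LT and ST oncogenes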
[26] = DRD fibroblast viability loss – cell-based, non-viral oncogenic, luminescence, dose response (AID 1934); type: functional; conditions: Homo sapiens
Streptococcus = assay: GAS UMAA2166 growth inhibition – luminescence, BacTiterGlo, counter-screen for streptokinase expression inhibitor project, dose response (AID 1915); type: functional, organism-based;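 also: potency for reduction of bacterial viability or growth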
Nonstructural protein 1 = Nonstructural protein 1 (Influenza A virus, UniProt Q194T2); type: functional, Influenza A virus (A/California/07/2009(H1N1))
Nonstructural protein 1, sequence (Q194T2 whole entry): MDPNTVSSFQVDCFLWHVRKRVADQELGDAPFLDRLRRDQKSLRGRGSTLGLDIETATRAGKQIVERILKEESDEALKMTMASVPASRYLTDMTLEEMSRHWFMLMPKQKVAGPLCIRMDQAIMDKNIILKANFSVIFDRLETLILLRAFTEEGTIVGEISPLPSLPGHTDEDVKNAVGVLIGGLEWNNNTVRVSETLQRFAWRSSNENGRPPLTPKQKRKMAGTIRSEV

[27] = molecular target: Heat shock protein HSP 90-alpha (Homo sapiens, UniProt P07900); type: functional, organism-based
[28] = molecular target: ATP-dependent molecular chaperone HSP82 (Candida albicans (strain WO-1) (Yeast), UniProt C4YTQ8); assay: steroid-induced GRE reporter decrease in yeast – S. cerevisiae, luminescence, Hsp90 inhibitor project, dose response (AID 2400); type: functional, cell-based;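 also: beta-galactosidase luminescence from glucocorticoid response element reporter as proxy for Hsp90 function; inhibitor potency where signal loss means Hsp90 inhibition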
ATP-dependent molecular chaperone HSP82, sequence (C4YTQ8 whole entry): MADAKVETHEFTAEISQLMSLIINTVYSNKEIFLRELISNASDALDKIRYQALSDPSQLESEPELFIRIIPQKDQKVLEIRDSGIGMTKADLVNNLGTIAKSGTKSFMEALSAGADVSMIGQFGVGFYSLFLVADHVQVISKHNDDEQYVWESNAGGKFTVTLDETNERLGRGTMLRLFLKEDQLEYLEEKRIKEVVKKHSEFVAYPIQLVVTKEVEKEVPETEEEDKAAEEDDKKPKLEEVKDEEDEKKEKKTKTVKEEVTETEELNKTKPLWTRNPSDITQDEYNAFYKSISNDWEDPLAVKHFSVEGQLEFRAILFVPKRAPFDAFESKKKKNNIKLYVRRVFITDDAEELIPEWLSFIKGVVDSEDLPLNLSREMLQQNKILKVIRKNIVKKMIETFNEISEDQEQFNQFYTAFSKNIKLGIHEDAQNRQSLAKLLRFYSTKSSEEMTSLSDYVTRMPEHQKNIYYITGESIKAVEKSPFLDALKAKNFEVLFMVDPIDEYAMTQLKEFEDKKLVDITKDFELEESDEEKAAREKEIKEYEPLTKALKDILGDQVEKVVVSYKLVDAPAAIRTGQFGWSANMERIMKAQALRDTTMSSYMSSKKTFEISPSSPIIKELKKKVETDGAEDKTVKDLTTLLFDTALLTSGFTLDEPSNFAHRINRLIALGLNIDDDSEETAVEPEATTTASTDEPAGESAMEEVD

[29] = mammalian cell viability loss – Alamar Blue, dry powder, cytotoxicity control for antifungal single agent project, dose response (AID 602188); type: functional, cell-based

Beta-2 adrenergic receptor, sequence (P07550 whole entry): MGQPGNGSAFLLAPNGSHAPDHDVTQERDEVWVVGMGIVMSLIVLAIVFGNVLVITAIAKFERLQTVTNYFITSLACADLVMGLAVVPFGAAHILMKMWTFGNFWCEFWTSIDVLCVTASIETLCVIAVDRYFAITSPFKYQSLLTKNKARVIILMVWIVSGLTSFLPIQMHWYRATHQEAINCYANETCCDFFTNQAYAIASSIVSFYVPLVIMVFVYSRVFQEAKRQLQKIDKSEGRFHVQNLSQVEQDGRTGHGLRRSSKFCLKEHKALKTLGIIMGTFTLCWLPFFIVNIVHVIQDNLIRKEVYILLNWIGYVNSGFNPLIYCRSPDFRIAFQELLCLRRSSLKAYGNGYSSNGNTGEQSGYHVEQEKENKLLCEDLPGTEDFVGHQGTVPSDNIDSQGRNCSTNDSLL

CN(C)CCNc1ncnc2c1sc1nc(N3CCCC3)c3c(c12)CC(C)(C)OC3
CC50 (Vero): 17.8 µM (active)
EC50 [1]: 4.02 µM (active)
IC50 (Protein skinhead-1): > 100 µM (inactive)
AC50 [2]: 34.7 µM (active)
AC50 [3]: 9.5 µM (active)
AC50 [4]: 6.55 µM (active)

C=CC(=O)Nc1cccc(Oc2[nH]cnc3ncc(-c4cnc5ccccc5c4)c2-3)c1
IC50 (Interleukin-8 [5]): 3.39 µM (active)
IC50 (Interleukin-8 [6]): 2.52 µM (active)

O=C(CSc1cccc2cccnc12)Nc1cc(C(=O)O)cc(C(=O)O)c1
AC50 [7]: 104 µM (active)

O=C(NN=Cc1ccccc1O)NN=Cc1ccccc1O
IC50 [8]: 3.93 µM (active)
IC50 [9]: 10.1 µM (active)
IC50 [10]: 4.05 µM (active)

C/C(N)=C(/C#N)C(=O)CSc1nn(-c2ccc(Cl)cc2)c(=S)s1
CC50 [11]: 15.9 µM (active)
IC50 [12]: 155 µM (inactive)

C/C=C(/C)C(=O)OC(C)(C)[C@@H]1Cc2c(ccc3ccc(=O)oc23)O1 [COLUMBIANADIN]
AC50 [13]: 0.389 µM (active)

Oc1c(CN2CCc3ccccc3C2)cc(Cl)c2cccnc12
EC50 [14]: > 160 µM (inactive)
EC50 [15]: 2.95 µM (active)
EC50 (BJ [16]): 8.6 µM (active)
EC50 [17]: 17.7 µM (active)
EC50 (cells [18]): > 350 µM (not active)
EC50 (Streptokinase A): > 150 µM (not active)
EC50 (BJ [19]): 10.9 µM (active)
EC50 [20]: 0.712 µM (active)
EC50 (cells [21]): > 350 µM (not active)
EC50 [22]: 1.03 µM (active)
EC50 [23]: > 180 µM (inactive)
EC50 (HT-1080): 22.2 µM (active)
EC50 [24]: 0.973 µM (active)
EC50 (BJ [25]): 8.45 µM (inconclusive)
EC50 [26]: 6.01 µM (active)
EC50 (Streptococcus): 9.33 µM (active)
IC50 (Nonstructural protein 1): 11.1 µM (active)
AC50 [27]: 7.67 µM (active)
EC50 [28]: > 160 µM (inactive)
AC50 [29]: < 0.1 µM (active)
